# Assays:
# [1] = tested on: K562/adr (drug-resistant, chronic myeloid leukemia, CML); assay: MTT growth inhibition of leukemia cells, 72 h; type: cell-based, human; settings: MTT
# Text: (§1) Leukemia cell lines: leukemia cell lines: K562/adr (drug-resistant, chronic myeloid leukemia, CML), NB4 (acute promyelocytic leukemia, AML), Kasumi-1 (acute myeloid leukemia M2 type, AML-M2), Jurkat (acute lymphoblastic leukemia, ALL), all of which are donated by Cancer Research Institute of Zhejiang University, China; and H9 (acute lymphoblastic leukemia, ALL), which is purchased from China Center for Type Culture Collection (CCTCC).
# (§2) Reagents: The standard sample of homoharringtonine (HHT) is purchased from Taihua Natural Plant Pharmaceutical Co., Ltd., Shaanxi, China, the homoharringtonine derivatives of the present invention.
# (§3) Obtaining 6000 well-growing leukemia cells and inoculating them into wells of a 96-well cell culture plate. The culture medium is the 1640 cell culture medium containing 10% fetal bovine serum. After adding the homoharringtonine derivatives of different concentrations and mixing uniformly, placing the plate in a carbon dioxide cell incubator (5% CO2) at 37° C. and incubated for 72 hours. Then the viable cell concentration is determined by the MTT method. In this experiment, the cell viability in control group (not treated with any compound) is set as 100%. On such basis, the cell viability (%) after treatment and the 50% inhibiting concentration of the compound for the leukemia cell growth at 72 hours (IC50 value of 72 hours) are calculated.
# [2] = tested on: Kasumi-1 (acute myeloid leukemia M2 type, AML-M2); assay: MTT growth inhibition of leukemia cells, 72 h; type: cell-based, human
# Text: as §1, §2, §3
# [3] = tested on: Jurkat (acute lymphoblastic leukemia, ALL); assay: MTT growth inhibition of leukemia cells, 72 h; type: cell-based, human
# Text: as §1, §2, §3
# [4] = tested on: NB4 (acute promyelocytic leukemia, AML); assay: MTT growth inhibition of leukemia cells, 72 h; type: cell-based, human; settings: MTT
# Text: as §1, §2, §3
# [5] = tested on: H9 (acute lymphoblastic leukemia, ALL); assay: MTT growth inhibition of leukemia cells, 72 h; type: cell-based, human; settings: MTT
# Text: as §1, §2, §3
# [6] = tested on: RPMI8226 (multiple myeloma); assay: MTT growth inhibition of multiple myeloma cells, 72 h; type: cell-based, human
# Protocol: Multiple myeloma and lymphoma cell lines: RPMI8226 (multiple myeloma), purchased from Fuxiang Bio-tech Co. Ltd., Shanghai, China.
# as §3
# [7] = tested on: U87 MG (malignant glioma cell); assay: MTT growth inhibition of human solid tumor cells, 72 h; type: cell-based
# Protocol: (§4) Human solid tumor cell lines: Hep-2 (laryngeal carcinoma), A549 (human lung cancer), CaES-17 (esophageal cancer cell), PC-3 (prostate cancer), CNE (nasopharyngeal carcinoma cell), and SK-OV-3 (ovarian cancer cell), all of which are purchased from China Center For Type Culture Collection; RKO (human colon adenocarcinoma cell), MGC 803 (human gastric cancer cell), MG63 (osteosarcoma) and U87 MG (malignant glioma cell), all of which are purchased from Fuxiang Bio-tech Co. Ltd., Shanghai, China; PANC-1 (pancreatic cancer), Huh7 (human liver cancer cell), Becap37 (human breast cancer cell), and Hela (human cervical cancer cell), all of which are donated by Cancer Research Institute of Zhejiang University, China.
# (§5) Obtaining 4000 well-growing human solid tumor cells and inoculating them into wells of a 96-well cell culture plate. The culture medium is DMEM High Glucose cell culture medium containing 10% fetal bovine serum. The plate is placed in a carbon dioxide cell incubator (5% CO2) at 37° C. and incubated for 24 hours. After adding the homoharringtonine derivatives of different concentration and mixing uniformly, the plate is placed in a carbon dioxide cell incubator (5% CO2) at 37° C. and incubated for 72 hours. Then the viable cell concentration is determined by the MTT method and the cell viability (%) after drug treatment is calculated. In this experiment, the cell viability of control group (not treated with any compound) is set as 100%.
# [8] = tested on: Hep-2 (laryngeal carcinoma); assay: as above; type: cell-based
# Protocol: as §4, §5
# [9] = tested on: Becap37 (human breast cancer cell); assay: as above; type: cell-based
# Protocol: as §4, §5
# [10] = tested on: A549 (human lung cancer); assay: as above; type: cell-based
# Protocol: as §4, §5
# [11] = tested on: CNE (nasopharyngeal carcinoma cell); assay: as above; type: cell-based; settings: MTT
# Protocol: as §4, §5
# [12] = tested on: CaES-17 (esophageal cancer cell); assay: as above; type: cell-based
# Protocol: as §4, §5
# [13] = tested on: Huh7 (human liver cancer cell); assay: as above; type: cell-based
# Protocol: as §4, §5
# [14] = tested on: MGC 803 (human gastric cancer cell); assay: as above; type: cell-based
# Protocol: as §4, §5
# [15] = tested on: MG63 (osteosarcoma); assay: as above; type: cell-based
# Protocol: as §4, §5
# [16] = tested on: PC-3 (prostate cancer); assay: as above; type: cell-based; settings: MTT
# Protocol: as §4, §5
# [17] = tested on: Hela (human cervical cancer cell); assay: as above; type: cell-based; settings: MTT
# Protocol: as §4, §5
# [18] = tested on: RKO (human colon adenocarcinoma cell); assay: as above; type: cell-based
# Protocol: as §4, §5
# [19] = tested on: PANC-1 (pancreatic cancer); assay: as above; type: cell-based
# Protocol: as §4, §5
# [20] = tested on: SK-OV-3 (ovarian cancer cell); assay: as above; type: cell-based
# Protocol: as §4, §5
structure (smiles),measurement,setting,value
COC(=O)C[C@](O)(CCCC(C)(C)OC(=O)c1ccco1)C(=O)O[C@@H]1C(OC)=C[C@]23CCCN2CCc2cc4c(cc2[C@H]13)OCO4 [BS-HH-059],IC50,"[1]; Homo sapiens, K562/Adr",0.03 µg/mL
same,IC90,"[1]; Homo sapiens, K562/Adr",0.35 µg/mL
same,IC50,"[2]; Homo sapiens, Kasumi 1, MTT",0.005 µg/mL
same,IC90,"[2]; Homo sapiens, Kasumi 1, MTT",0.012 µg/mL
same,IC50,"[3]; Homo sapiens, Jurkat",0.003 µg/mL
same,IC90,"[3]; Homo sapiens, Jurkat",≥ 16 µg/mL
same,IC50,[4]; Homo sapiens,0.006 µg/mL
same,IC90,[4]; Homo sapiens,0.012 µg/mL
same,IC50,[5]; Homo sapiens,0.007 µg/mL
same,IC90,[5]; Homo sapiens,0.02 µg/mL
same,IC50,"[6]; Homo sapiens, RPMI-8226, MTT",0.006 µg/mL
same,IC90,"[6]; Homo sapiens, RPMI-8226, MTT",0.039 µg/mL
same,IC50,"[7]; Homo sapiens, U-87 MG",0.023 µg/mL
same,IC90,"[7]; Homo sapiens, U-87 MG",0.18 µg/mL
same,IC50,"[8]; Homo sapiens, HEp-2",0.015 µg/mL
same,IC90,"[8]; Homo sapiens, HEp-2",> 16 µg/mL
same,IC50,[9]; Homo sapiens,0.007 µg/mL
same,IC90,[9]; Homo sapiens,7.4 µg/mL
same,IC50,"[10]; Homo sapiens, A549",0.03 µg/mL
same,IC90,"[10]; Homo sapiens, A549",> 16 µg/mL
same,IC50,[11]; Homo sapiens,0.031 µg/mL
same,IC90,[11]; Homo sapiens,> 16 µg/mL
same,IC50,"[12]; Homo sapiens, CaEs17",0.029 µg/mL
same,IC90,"[12]; Homo sapiens, CaEs17",16 µg/mL
same,IC50,"[13]; Homo sapiens, Huh-7",0.012 µg/mL
same,IC90,"[13]; Homo sapiens, Huh-7",0.081 µg/mL
same,IC50,"[14]; Homo sapiens, MGC-803",0.021 µg/mL
same,IC90,"[14]; Homo sapiens, MGC-803",0.11 µg/mL
same,IC50,"[15]; Homo sapiens, MG-63, MTT",0.02 µg/mL
same,IC90,"[15]; Homo sapiens, MG-63, MTT",3.08 µg/mL
same,anti-MG63 effect relative to homoharringtonine,[15]; vs HHT,substantially superior
same,IC50,[16]; Homo sapiens,0.08 µg/mL
same,IC90,[16]; Homo sapiens,> 16 µg/mL
same,IC50,"[17]; Homo sapiens, HeLa",0.014 µg/mL
same,IC90,"[17]; Homo sapiens, HeLa",16 µg/mL
same,IC50,"[18]; Homo sapiens, MTT",0.001 µg/mL
same,IC90,"[18]; Homo sapiens, MTT",0.015 µg/mL
same,anti-RKO effect relative to homoharringtonine,[18]; vs HHT,substantially superior
same,IC50,"[19]; Homo sapiens, PANC-1, MTT",0.029 µg/mL
same,IC90,"[19]; Homo sapiens, PANC-1, MTT",> 16 µg/mL
same,IC50,"[20]; Homo sapiens, SK-OV-3, MTT",0.08 µg/mL
same,IC90,"[20]; Homo sapiens, SK-OV-3, MTT",> 16 µg/mL
COC(=O)C[C@](O)(CCCC(C)(C)OC(=O)c1cnoc1C)C(=O)O[C@@H]1C(OC)=C[C@]23CCCN2CCc2cc4c(cc2[C@H]13)OCO4 [BS-HH-061],IC50 K562/adr,[1],0.24 µg/mL
same,IC90 K562/adr,[1],12.57 µg/mL
same,IC50 Kasumi-1,[2]; MTT,0.062 µg/mL
same,IC90 Kasumi-1,[2]; MTT,0.23 µg/mL
same,IC50 Jurkat,[3],0.071 µg/mL
same,IC90 Jurkat,[3],≥ 16 µg/mL
same,IC50 NB4,[4],0.07 µg/mL
same,IC90 NB4,[4],0.14 µg/mL
same,IC50 H9,[5],0.14 µg/mL
same,IC90 H9,[5],0.25 µg/mL
same,IC50 RPMI8226,[6]; MTT,0.062 µg/mL
same,IC90 RPMI8226,[6]; MTT,0.25 µg/mL
same,IC50 U87 MG,[7],0.31 µg/mL
same,IC90 U87 MG,[7],0.96 µg/mL
same,IC50 Hep-2,[8],0.39 µg/mL
same,IC90 Hep-2,[8],>16 µg/mL
same,IC50 Becap37,[9],0.17 µg/mL
same,IC90 Becap37,[9],16 µg/mL
same,IC50 A549,[10],0.52 µg/mL
same,IC90 A549,[10],>16 µg/mL
same,IC50 CNE,[11],0.42 µg/mL
same,IC90 CNE,[11],>16 µg/mL
same,IC50 CaES-17,[12],0.38 µg/mL
same,IC90 CaES-17,[12],16 µg/mL
same,IC50 Huh7,[13],0.056 µg/mL
same,IC90 Huh7,[13],0.34 µg/mL
same,IC50 MGC 803,[14],0.058 µg/mL
same,IC90 MGC 803,[14],0.16 µg/mL
same,IC50 MG 63,[15]; MTT,0.093 µg/mL
same,IC90 MG 63,[15]; MTT,10.76 µg/mL
same,IC50 PC-3,[16],3.15 µg/mL
same,IC90 PC-3,[16],>16 µg/mL
same,IC50 Hela,[17],0.31 µg/mL
same,IC90 Hela,[17],16 µg/mL
same,IC50 RKO,[18]; MTT,0.039 µg/mL
same,IC90 RKO,[18]; MTT,0.24 µg/mL
same,IC50 PANC-1,[19]; MTT,0.21 µg/mL
same,IC90 PANC-1,[19]; MTT,>16 µg/mL
same,IC50 SK-OV-3,[20]; MTT,0.4 µg/mL
same,IC90 SK-OV-3,[20]; MTT,>16 µg/mL

# From patent publication US9428519B2, “Acylated derivative of homoharringtonine, preparation method therefor, and application thereof” (HANGZHOU BENSHENG PHARMACEUTICAL CO., LTD., priority 2011, dated 2016)
